According to article PMC8584989 (International Journal of Molecular Sciences, 2021):
pIC50: −log10 of the molar value.

Experiments:
[1] = tested on: ABC transporters and CYPs; test: Gene expression (induction) studies by qRT-PCR; assay type: cell-based, human; conditions: 1.5 µM tepotinib; DI-related models, NSCLC cell lines and primary NSCLC cultures
Description: Gene expression studies were performed employing quantitative real-time reverse transcription PCR (qRT-PCR) technique as described in our previous papers.
The Caco-2, LS174T, A549, NCI-H1299 cells or primary lung cancer cells were seeded on 12-well plates with the densities of 50 × 10^4, 100 × 10^4, 24 × 10^4, 18 × 10^4 or 15 × 10^4 cells/well, respectively, and incubated for 24 h. […] Samples were collected at 24 h and 48 h intervals after drug treatment using TRI Reagent and then, mRNA isolation was performed. Agarose gel electrophoresis was used for the control of RNA quality and integrity and the RNA yield was monitored via NanoDrop ND-1000 spectrophotometer (American Laboratory Trading, East Lyme, CT, USA). RNA (1000 ng) was transcribed to cDNA using gb Reverse Transcription Kit. ABCB1, ABCG2 and ABCC1 mRNA expressions were detected with Master Mix and TaqMan-based qRT-PCR systems using QuantStudio 6 (Life Technologies, Carlsbad, CA, USA). […]
In the case of the HepaFH3 hepatocytes, first, viability was analyzed with CellTiter-Glo 2.0 Viability Assay; the luminescence was measured using a microplate reader (FLUOstar Omega, BMG Labtech, Ortenberg, Germany). […] RNA integrity and quality was checked by agarose gel electrophoresis and the concentration assessed by NanoDrop. […]

HL60-ABCC1 cells = test: XTT proliferation assay (comparative viability); assay type: cell-based; conditions: single drug, 48 h
Description: These colorimetric assays were used in various studies presented in this paper (prior induction studies, MDR reversal experiments and comparative viability assays) and were performed as reported previously. […] In MTT experiments, cells were seeded on a 96-well culture plate at densities (in number of cells/well) of 1.3 × 10^4 for MDCKII-par, MDCKII-ABCB1 and MDCKII-ABCG2; 1.2 × 10^4 for A431-par, A431-ABCB1, A431-ABCG2 and A431-ABCC1; 1.2 × 10^4 for NCI-H1299; 1.0 × 10^4 for A459; 2.0 × 10^4 for Caco-2; 5.0 × 10^4 for LS174T; and 1.0 × 10^4 for primary NSCLC explants. On the other hand, for XTT cells were seeded with densities 2.0 × 10^4 for HL60-par, HL60-ABCB1, HL60-ABCG2 and HL60-ABCC1 cells/well on 96-well plates. […] Following 48 h incubation with drugs, Opti-MEM solutions of MTT or XTT (1 mg/mL) with phenazine methosulfate solution (7.50 μg/mL; only for XTT) was added and the cells were incubated for 1 h with the exception of HL60s that were incubated for 5 h.

CYP2D6 = molecular target: T1, CYP2D6 (Homo sapiens, UniProt P10635); test: Vivid CYP450 Screening Kit, recombinant CYP2D6; assay type: in vitro ADME
T1 construct: purchased Thermo Fisher Scientific
Description: (§1) CYP inhibitory assay was performed using Vivid CYP450 screening kit as described previously. The kits consist of microsomal fraction containing human CYP isoforms, human CYP reductase and in several cases cytochrome b5. Experiments were performed following the manufacturer’s protocol on black 96-well plates using kinetic mode. […] Then, the master mix (CYP isoenzyme with an NADPH regeneration system in buffer) was added in each well and plate was pre-incubated for 10 min. The reaction was started with the mixture of NADP^+ and Vivid substrate and the fluorescence of samples was measured in 1 min interval for 60 min using an Infinite M200 Pro microplate reader (Tecan, Männedorf, Switzerland). Data from linear phase (15 min) were used for data evaluation.

CYP2B6 = molecular target: T2, CYP2B6 (Homo sapiens, UniProt P20813); test: Vivid CYP450 Screening Kit, recombinant CYP2B6; assay type: in vitro ADME; conditions: recombinant enzyme; read-out: CYP2B6 inhibition IC50
T2 construct: purchased Thermo Fisher Scientific
Description: as §1

T1 sequence (P10635 whole entry): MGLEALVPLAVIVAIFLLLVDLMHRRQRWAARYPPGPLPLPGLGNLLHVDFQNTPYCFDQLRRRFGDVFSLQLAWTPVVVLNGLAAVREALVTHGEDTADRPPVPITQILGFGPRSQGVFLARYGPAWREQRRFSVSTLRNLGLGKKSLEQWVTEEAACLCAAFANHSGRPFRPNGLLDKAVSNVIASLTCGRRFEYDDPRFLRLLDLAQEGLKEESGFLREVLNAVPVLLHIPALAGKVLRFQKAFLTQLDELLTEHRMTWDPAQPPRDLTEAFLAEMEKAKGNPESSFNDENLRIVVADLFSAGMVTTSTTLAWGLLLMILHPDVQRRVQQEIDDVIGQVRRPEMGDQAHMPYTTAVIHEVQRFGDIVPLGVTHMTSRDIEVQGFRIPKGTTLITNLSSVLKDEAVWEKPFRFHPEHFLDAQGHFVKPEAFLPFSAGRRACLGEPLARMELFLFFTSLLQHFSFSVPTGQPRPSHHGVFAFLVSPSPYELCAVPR
T2 sequence (P20813 whole entry): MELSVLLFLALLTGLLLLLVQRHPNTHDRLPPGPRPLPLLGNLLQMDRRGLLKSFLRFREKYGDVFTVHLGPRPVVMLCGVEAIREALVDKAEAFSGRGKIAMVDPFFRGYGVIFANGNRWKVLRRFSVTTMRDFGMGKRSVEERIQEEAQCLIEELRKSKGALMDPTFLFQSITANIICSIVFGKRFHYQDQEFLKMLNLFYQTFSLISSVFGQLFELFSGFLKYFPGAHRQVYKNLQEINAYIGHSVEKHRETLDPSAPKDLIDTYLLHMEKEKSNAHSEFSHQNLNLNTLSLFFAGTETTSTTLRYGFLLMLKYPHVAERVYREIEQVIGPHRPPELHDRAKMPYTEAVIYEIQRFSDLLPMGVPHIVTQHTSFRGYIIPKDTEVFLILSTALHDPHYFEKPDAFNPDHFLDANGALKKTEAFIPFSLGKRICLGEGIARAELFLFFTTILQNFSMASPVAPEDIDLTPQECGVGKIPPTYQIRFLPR

Structure (SMILES): CN1CCC(COc2cnc(-c3cccc(Cn4nc(-c5cccc(C#N)c5)ccc4=O)c3)nc2)CC1 [tepotinib, Tepotinib]
- Effect on expression of clinically relevant ABC transporters and CYPs [1]: did not influence expression
- pIC50 (HL60-ABCC1 cells): 4.70
- pIC50 (CYP2D6): < 4.30
- pIC50 (CYP2B6): < 4.30
